Columns and labels:
Test in all cases: 3H-thymidine assay
Type in all cases: cell-based
[1] = test system: GV-1 prostate carcinoma cells
Daudi leukemic cells = settings: Homo sapiens
[2] = test system: MCF-7 breast cancer cells; settings: Homo sapiens, MCF7
Experimental: (§1) The cell lines were cultivated as indicated in Example 1.
(§2) The antiproliferative effect of the 1,2-benzopyrone derivatives according to the invention on the tumor cell lines in each case was shown with the help of the ^3 H-thymidine insertion and with reference to growth curves.
(§3) In a 24-well-plate, in each case 10^4 cells of the line to be investigated were inoculated per well. Approximately 48 hours later the cells were half-confluent; the medium was then changed and replaced by a medium containing the active substance in question (cf Table 3). After a further 48 hours 0.25 μCi ^3 H-thymidine (Ammersham) was added to each well and the cells were incubated for a further 24 hours. Subsequently the cultures were washed twice with ice-cold PBS and the high-molecular-weight ^3 H-radioactivity was precipitated with 5% trichloroacetic acid for one hour at 4° C. After the washing of the cells in PBS the ^3 H-radioactivity was solubilized with 0.3M NaOH and measured in the counter. The growth-inhibition was determined by comparing the thymidine insertion of the cells treated with active substance with untreated cells.
(§4) The active substance concentration in each case was so chosen that ^3 H-thymidine insertion was 50% inhibited. The active substance concentrations used under this aspect for the active substances and cell lines in each case are given in table 4 below in μM/ml, […]

At T 20 = settings: Mus musculus, AtT20
Experimental: as §1, §2, §3, §4

K-562 leukemic cells = settings: Homo sapiens, K562
Experimental: as §1, §2, §3, §4

CAKI-1 cells = settings: Homo sapiens, CAKI-1
Experimental: as §1, §2, §3, §4

A-375 melanoma cells = settings: Homo sapiens, A-375
[3] = test system: Z-R-75-1 breast cancer cells; settings: Homo sapiens, ZR-75-1
CAKI-2 cells = settings: Homo sapiens, CAKI-2
Experimental: as §1, §2
as §3, with “After a further 48 hours 0.25 μCi ^3 H-thymidine (Ammersham) was added to each well and the cells were incubated for a further 24 hours.” left out
as §4

[4] = 1 μM/ml, read-out: 3H-thymidine tracer (%) of control
[5] = 2 μM/ml, read-out: 3H-thymidine tracer (%) of control
[6] = 4 μM/ml, read-out: 3H-thymidine tracer (%) of control
[7] = 8 μM/ml, read-out: 3H-thymidine tracer (%) of control
[8] = 16 μM/ml, read-out: 3H-thymidine tracer (%) of control
[9] = 25 μM/ml, read-out: 3H-thymidine tracer (%) of control
[10] = 50 μM/ml, read-out: 3H-thymidine tracer (%) of control
[11] = 100 μM/ml, read-out: 3H-thymidine tracer (%) of control
[12] = 250 μM/ml, read-out: 3H-thymidine tracer (%) of control
[13] = 500 μM/ml, read-out: 3H-thymidine tracer (%) of control
[14] = Table 4, read-out: active substance concentration at which 3H-thymidine insertion was 50% inhibited
[15] = Table 4, *: maximum usable dosage, no 50% inhibition, read-out: active substance concentration at which 3H-thymidine insertion was 50% inhibited
[16] = 150 μM/ml, read-out: 3H-thymidine tracer (%) of control

## COc1cc2ccc(=O)oc2cc1O [Scopoletin, 6-methoxy-7-hydroxy-1,2-benzopyrone]
[1]; [4]
  activity at 1 µM: 100%
[1]; [5]
  activity at 2 µM: 98%
[1]; [6]
  activity at 4 µM: 91%
[1]; [7]
  activity at 8 µM: 88%
[1]; [8]
  activity at 16 µM: 82%
[1]; [9]
  activity at 25 µM: 78%
[1]; [10]
  activity at 50 µM: 71%
[1]; [11]
  activity at 100 µM: 63%
[1]; [12]
  activity at 250 µM: 61%
[1]; [13]
  activity at 500 µM: 51%
[1]; [14]
  IC50: 500 µM
Daudi leukemic cells; [4]
  activity at 1 µM: 96%
Daudi leukemic cells; [5]
  activity at 2 µM: 94%
Daudi leukemic cells; [6]
  activity at 4 µM: 80%
Daudi leukemic cells; [7]
  activity at 8 µM: 79%
Daudi leukemic cells; [8]
  activity at 16 µM: 71%
Daudi leukemic cells; [9]
  activity at 25 µM: 64%
Daudi leukemic cells; [10]
  activity at 50 µM: 58%
Daudi leukemic cells; [11]
  activity at 100 µM: 53%
Daudi leukemic cells; [12]
  activity at 250 µM: 49%
Daudi leukemic cells; [13]
  activity at 500 µM: 41%
Daudi leukemic cells; [14]
  IC50: 250 µM
[2]; [4]
  activity at 1 µM: 100%
[2]; [5]
  activity at 2 µM: 97%
[2]; [6]
  activity at 4 µM: 94%
[2]; [7]
  activity at 8 µM: 86%
[2]; [8]
  activity at 16 µM: 81%
[2]; [9]
  activity at 25 µM: 76%
[2]; [10]
  activity at 50 µM: 73%
[2]; [11]
  activity at 100 µM: 69%
[2]; [12]
  activity at 250 µM: 62%
[2]; [13]
  activity at 500 µM: 54%
[2]; [15]
  IC50: > 500 µM
At T 20; [4]
  activity at 1 µM: 98%
At T 20; [5]
  activity at 2 µM: 94%
At T 20; [6]
  activity at 4 µM: 89%
At T 20; [7]
  activity at 8 µM: 84%
At T 20; [8]
  activity at 16 µM: 76%
At T 20; [9]
  activity at 25 µM: 68%
At T 20; [10]
  activity at 50 µM: 62%
At T 20; [11]
  activity at 100 µM: 57%
At T 20; [12]
  activity at 250 µM: 49%
At T 20; [13]
  activity at 500 µM: 43%
At T 20; [14]
  IC50: 250 µM
K-562 leukemic cells; [4]
  activity at 1 µM: 100%
K-562 leukemic cells; [5]
  activity at 2 µM: 97%
K-562 leukemic cells; [6]
  activity at 4 µM: 90%
K-562 leukemic cells; [7]
  activity at 8 µM: 85%
K-562 leukemic cells; [8]
  activity at 16 µM: 82%
K-562 leukemic cells; [9]
  activity at 25 µM: 71%
K-562 leukemic cells; [10]
  activity at 50 µM: 66%
K-562 leukemic cells; [11]
  activity at 100 µM: 52%
K-562 leukemic cells; [12]
  activity at 250 µM: 47%
K-562 leukemic cells; [13]
  activity at 500 µM: 44%
K-562 leukemic cells; [14]
  IC50: 175 µM
CAKI-1 cells; [4]
  activity at 1 µM: 100%
CAKI-1 cells; [5]
  activity at 2 µM: 98%
CAKI-1 cells; [6]
  activity at 4 µM: 87%
CAKI-1 cells; [7]
  activity at 8 µM: 81%
CAKI-1 cells; [8]
  activity at 16 µM: 80%
CAKI-1 cells; [9]
  activity at 25 µM: 73%
CAKI-1 cells; [10]
  activity at 50 µM: 69%
CAKI-1 cells; [11]
  activity at 100 µM: 67%
CAKI-1 cells; [16]
  activity at 150 µM: 62%
CAKI-1 cells; [13]
  activity at 500 µM: 55%
CAKI-1 cells; [15]
  IC50: > 500 µM
A-375 melanoma cells; [4]
  activity at 1 µM: 99%
A-375 melanoma cells; [5]
  activity at 2 µM: 96%
A-375 melanoma cells; [6]
  activity at 4 µM: 90%
A-375 melanoma cells; [7]
  activity at 8 µM: 89%
A-375 melanoma cells; [9]
  activity at 25 µM: 87%
A-375 melanoma cells; [10]
  activity at 50 µM: 78%
A-375 melanoma cells; [11]
  activity at 100 µM: 75%
A-375 melanoma cells; [12]
  activity at 250 µM: 75%
A-375 melanoma cells; [13]
  activity at 500 µM: 70%
A-375 melanoma cells; [15]
  IC50: > 500 µM
[3]; [4]
  activity at 1 µM: 98%
[3]; [5]
  activity at 2 µM: 96%
[3]; [6]
  activity at 4 µM: 91%
[3]; [7]
  activity at 8 µM: 83%
[3]; [8]
  activity at 16 µM: 79%
[3]; [9]
  activity at 25 µM: 72%
[3]; [10]
  activity at 50 µM: 64%
[3]; [11]
  activity at 100 µM: 57%
[3]; [12]
  activity at 250 µM: 55%
[3]; [13]
  activity at 500 µM: 50%
[3]; [15]
  IC50: > 500 µM
CAKI-2 cells; [4]
  activity at 1 µM: 99%
CAKI-2 cells; [5]
  activity at 2 µM: 96%
CAKI-2 cells; [6]
  activity at 4 µM: 84%
CAKI-2 cells; [7]
  activity at 8 µM: 80%
CAKI-2 cells; [8]
  activity at 16 µM: 76%
CAKI-2 cells; [9]
  activity at 25 µM: 71%
CAKI-2 cells; [10]
  activity at 50 µM: 66%
CAKI-2 cells; [11]
  activity at 100 µM: 61%
CAKI-2 cells; [16]
  activity at 150 µM: 59%
CAKI-2 cells; [13]
  activity at 500 µM: 53%
CAKI-2 cells; [15]
  IC50: > 500 µM

— US5525626A (priority 1989, dated 1996)
